The values below come from ChEMBL document CHEMBL1201862, “PubChem BioAssay data set” (2004).

Each structure is given as a SMILES string.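 Results reflect a 48-hour exposure of cells in 96-well plates to compound at five concentrations. Here, GI50 denotes the concentration required for 50% inhibition of growth.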 Calls of active or inactive are those of the source. Cut-off read from the data, not from the text of the source: active = GI50 up to about 1.1 µM and inactive = higher.

Among the test systems are UACC-62; M14; TK-10; HOP-92; SR; OVCAR-3; HOP-62; SK-MEL-28; OVCAR-5; HCC 2998; SF-539; RXF 393; CCRF-CEM; SNB-19; 786-0; K562; SF-268; OVCAR-8; SK-OV-3; SNB-75.
What all share (test): growth of human tumour cells (NCI), 48 h

Regarding `Fc1cccc(Cl)c1C1SCc2nc3cc4ccccc4cc3n21` (configuration not stated), the GI50 was 43.6 µM (inactive) in the assay with UACC-62; > 100 µM (inactive) in the assay with M14; 62.7 µM (inactive) in the assay with TK-10; 19.6 µM (inactive) in the assay with HOP-92; 8.32 µM (inactive) in the assay on SR; 66.1 µM (inactive) in the assay on OVCAR-3. Moreover, the GI50 in the assay with HOP-62 is 35 µM (inactive); in the assay on SK-MEL-28, > 100 µM (inactive); in the assay on OVCAR-5, > 100 µM (inactive); in the assay with HCC 2998, > 100 µM (inactive); with SF-539, 82.8 µM (inactive); with RXF 393, > 100 µM (inactive). The GI50 is > 100 µM (inactive) with CCRF-CEM; 52.7 µM (inactive) in the assay with SNB-19; 39.4 µM (inactive) with 786-0; > 100 µM (inactive) in the assay on K562; > 100 µM (inactive) in the assay on SF-268; 39.4 µM (inactive) with OVCAR-8. Also, the GI50 in the assay on SK-OV-3 is 37 µM (inactive).
As to `NC(=O)CC(N)C(N)=O` (configuration not stated), the GI50 with UACC-62, in the assay with M14, with TK-10, in the assay on HOP-92, in the assay on SR and in the assay with OVCAR-3 was > 100 µM (inactive) throughout. Further, the GI50 in the assay with SNB-75, in the assay on HOP-62, in the assay with SK-MEL-28, with SF-539, with RXF 393 and in the assay on CCRF-CEM was > 100 µM (inactive) in each case. Also, the GI50 with SNB-19, with 786-0, with K562, in the assay on OVCAR-8 and in the assay on SK-OV-3 was > 100 µM (inactive) in each case.
Take `O=C(O)C1C(C(=O)O)C23CC2(C(=O)O)C2(C(=O)O)CCC3=C3CCCC312` (configuration not stated): the GI50 in the assay on UACC-62 is 10.5 µM (inactive); in the assay with M14 it was 6.84 µM (inactive); in the assay with TK-10 it was 11.1 µM (inactive); in the assay with HOP-92 it was 8.3 µM (inactive); in the assay with SR it was 2.24 µM (inactive); in the assay with OVCAR-3, 2.5 µM (inactive). Also, the GI50 in the assay with SNB-75 is 11.2 µM (inactive); in the assay with HOP-62 it was 4.44 µM (inactive); with SK-MEL-28, 5.97 µM (inactive); in the assay with OVCAR-5, 16.6 µM (inactive); in the assay on SF-539 it was 4.67 µM (inactive); in the assay with RXF 393, 6.84 µM (inactive). Moreover, the GI50 in the assay with SNB-19 was 7.93 µM (inactive); in the assay with 786-0, 10.3 µM (inactive); in the assay with K562, 12.7 µM (inactive); in the assay with SF-268 it was 4.51 µM (inactive); in the assay on OVCAR-8, 10.7 µM (inactive); in the assay with SK-OV-3, 3.89 µM (inactive).
For `COc1cc(C2C(Cl)C(=O)N2NC(=O)c2ccc(NC(C)=O)cc2OC)ccc1O` (configuration not stated), the GI50 in the assay with UACC-62 is 18.1 µM (inactive); in the assay on M14 it was 16.3 µM (inactive); with HOP-92 it was 16 µM (inactive); in the assay on SR it was 7.29 µM (inactive); in the assay on OVCAR-3, 21.4 µM (inactive); with SNB-75, 29.4 µM (inactive). Also, the GI50 was 28.7 µM (inactive) in the assay with SK-MEL-28; 13.2 µM (inactive) with OVCAR-5; 19.1 µM (inactive) in the assay on SF-539; 20.6 µM (inactive) in the assay on RXF 393; 2.64 µM (inactive) with CCRF-CEM; 17.4 µM (inactive) in the assay with SNB-19. Also, the GI50 was 15.1 µM (inactive) in the assay on 786-0; 18.1 µM (inactive) in the assay on K562; 21.8 µM (inactive) in the assay on SF-268; 22.2 µM (inactive) with OVCAR-8; 63.1 µM (inactive) in the assay with SK-OV-3.
With `Cc1ccc2c(c1)S(=O)(=O)c1ccc3ccccc3c1N2`, the GI50 was > 100 µM (inactive) in the assay with UACC-62; > 100 µM (inactive) with M14; > 100 µM (inactive) in the assay on TK-10; > 100 µM (inactive) in the assay with HOP-92; 15.4 µM (inactive) in the assay on SR; > 100 µM (inactive) in the assay on OVCAR-3. The GI50 in the assay on HOP-62, with SK-MEL-28, in the assay on OVCAR-5, in the assay on HCC 2998, in the assay with SF-539 and in the assay with RXF 393 was > 100 µM (inactive) in each case. Moreover, the GI50 in the assay with CCRF-CEM, in the assay with SNB-19, in the assay with 786-0, in the assay with K562, with SF-268 and in the assay with OVCAR-8 was > 100 µM (inactive) each time. For the same compound, in the assay with SK-OV-3, the GI50 was > 100 µM (inactive).
Turning to `COc1cc(O)c2c(c1)OCC1(Cc3cc(OC)c(OC)cc31)C2=O` (configuration not stated), the GI50 was 63.2 µM (inactive) in the assay on UACC-62; > 100 µM (inactive) with M14; > 100 µM (inactive) in the assay with TK-10; 23.3 µM (inactive) with HOP-92; 68.7 µM (inactive) in the assay on SR; 34 µM (inactive) in the assay with OVCAR-3. Also, the GI50 in the assay with SNB-75 is 78.3 µM (inactive); in the assay on HOP-62, > 100 µM (inactive); with SK-MEL-28 it was > 100 µM (inactive); in the assay on OVCAR-5, > 100 µM (inactive); with SF-539 it was > 100 µM (inactive); with RXF 393, > 100 µM (inactive). For the same compound, the GI50 in the assay with CCRF-CEM was > 100 µM (inactive); in the assay with SNB-19, > 100 µM (inactive); in the assay on 786-0, > 100 µM (inactive); in the assay on K562 it was 36.9 µM (inactive); in the assay on SF-268, > 100 µM (inactive); in the assay with OVCAR-8 it was > 100 µM (inactive). Further, the GI50 in the assay with SK-OV-3 was > 100 µM (inactive).
`O=C1COc2ccc([N+](=O)[O-])cc2C(=O)C1`: the GI50 was > 10 µM (inactive) in the assay on UACC-62; > 10 µM (inactive) in the assay on M14; > 10 µM (inactive) with TK-10; 0.001 µM (active) with HOP-92; > 10 µM (inactive) with SR; > 10 µM (inactive) with OVCAR-3. The GI50 in the assay on HOP-62, in the assay with SK-MEL-28, with OVCAR-5, in the assay on HCC 2998, in the assay with SF-539 and in the assay on RXF 393 was > 10 µM (inactive) throughout. Further, the GI50 in the assay on CCRF-CEM, with SNB-19, in the assay on 786-0, in the assay on K562, with SF-268 and in the assay with OVCAR-8 was > 10 µM (inactive) throughout. For the same compound, the GI50 in the assay on SK-OV-3 is > 10 µM (inactive).
On to `COC(=O)c1c(O)ccc2c1c1c(n2CCc2ccc(OC)c(OC)c2)C(=O)c2ccccc2C1=O`, for which the GI50 with UACC-62 was 15.2 µM (inactive); in the assay on M14 it was 14.2 µM (inactive); in the assay with TK-10, 21.6 µM (inactive); in the assay on HOP-92, 14.6 µM (inactive); with SR, 14.8 µM (inactive); in the assay with OVCAR-3 it was 16.3 µM (inactive). Besides, the GI50 was 16 µM (inactive) with HOP-62; 11.6 µM (inactive) in the assay with SK-MEL-28; 19.7 µM (inactive) in the assay with OVCAR-5; 4.29 µM (inactive) with HCC 2998; 14.4 µM (inactive) in the assay on SF-539; 16.8 µM (inactive) in the assay with RXF 393. Besides, the GI50 in the assay on CCRF-CEM was 9.79 µM (inactive); in the assay on SNB-19, 22.5 µM (inactive); in the assay with 786-0 it was 13.8 µM (inactive); in the assay with K562 it was 20.5 µM (inactive); with SF-268, 17.5 µM (inactive); in the assay with OVCAR-8 it was 10.5 µM (inactive). In the assay on SK-OV-3, the GI50 was 19.4 µM (inactive).
